Test results published in US20230172899A1, “CANNABINOID COMPOSITIONS” (priority 2020, published 2023).
In brackets after ≈: the same amount, converted by molar mass. Read-outs that look alike come from different tables or passages of the source.

How the values were obtained:
[1] = test system: store-operated calcium entry (SOCE) in HEK293 cells; experiment: SOCE inhibition, Fura-2 Ca2+ bioassay, thapsigargin-induced, HEK293 cells; format: cell-based, human; conditions: for Inhibitory effect in immune cells compared with non-immune HEK293 cells: Jurkat vs HEK293 screening, 10 μM; for IC50: Homo sapiens
[2] = test system: store-operated calcium entry (SOCE) in U937 monocytes; experiment: SOCE inhibition, Fura-2 Ca2+ bioassay, thapsigargin-induced, U937 cells; format: cell-based, human; conditions: for IC50: Homo sapiens
[3] = test system: store-operated calcium entry (SOCE) in Luva human mast cells; experiment: SOCE inhibition, Fura-2 Ca2+ bioassay, thapsigargin-induced, Luva cells; format: cell-based; conditions: for IC50: Homo sapiens, Mast cell, read-out: IC50 SOCE Luva
[4] = test system: store-operated calcium entry (SOCE) in RBL-2H3 rat mast cells; experiment: SOCE inhibition, Fura-2 Ca2+ bioassay, thapsigargin-induced, RBL-2H3 cells; format: cell-based; conditions: for IC50: Rattus norvegicus
[5] = test system: store-operated calcium entry (SOCE) in Jurkat T cells; experiment: SOCE inhibition, Fura-2 Ca2+ bioassay, thapsigargin-induced, Jurkat cells; format: cell-based, human; conditions: for IC50: Homo sapiens; for Combinatory effect on SOCE inhibition when paired with CBGA: isobolographic analysis, pairs expected to inhibit 50%
[6] = test system: store-operated calcium entry (SOCE) in THP-1 cells; experiment: SOCE inhibition, combinatory (isobolographic) analysis, THP-1 cells; format: cell-based, human; conditions: THP-1 cells; isobolographic analysis, pairs expected to inhibit 50%
Description: Bar graphs shown in FIGS. 10A-10Z and 10BB display SOCE amplitudes calculated from area under the curve (AUC) of the SOCE signals and normalized to SOCE in the presence of gadolinium. Combinatory effects were assessed using an isobolographic analysis approach, where CBGA was paired with another cannabinoid using concentrations of CBGA corresponding to 50%, 40%, 30%, 20%, 10%, and 0% inhibition (as derived from the IC50 curves of FIGS. 9A-9P) and combined with concentrations of the paired cannabinoid, so that each combination would be expected to inhibit 50% of the Ca^2+ signal (e.g., the CBGA concentration causing 50% inhibition was tested alone without the other cannabinoid, the CBGA concentration expected to block 40% of the signal was combined with the concentration of the other cannabinoid expected to inhibit 10%, the CBGA concentration expected to block 30% of the signal was combined with the concentration of the other cannabinoid expected to inhibit 20%, and so on). Simple additivity of cannabinoid pairs would be expected to inhibit the Ca^2+ signal by 50%. All the data in these experiments represent an average of 3 independent runs and the values are graphed as mean values±SEM.

[7] = HEK293, read-out: IC50 SOCE HEK-293, Table 5, individual cannabinoids, HEK-293
[8] = U-937, read-out: IC50 SOCE U937, Table 5, individual cannabinoids, U937
[9] = RBL-2H3, read-out: IC50 SOCE RBL-2H3, Table 5, individual cannabinoids, RBL-2H3
[10] = Jurkat, read-out: IC50 SOCE Jurkat, Table 5, individual cannabinoids, Jurkat
[11] = HEK293, read-out: IC50 SOCE HEK-293
[12] = U-937, read-out: IC50 SOCE U937
[13] = RBL-2H3, read-out: IC50 SOCE RBL-2H3
[14] = Jurkat, read-out: IC50 SOCE Jurkat

SMILES | IC50 [1, 7] [µg/mL] | IC50 [2, 8] [µg/mL] | IC50 [3] [µg/mL] | IC50 [4, 9] [µg/mL] | IC50 [5, 10] [µg/mL] | Combinatory effect on SOCE inhibition when paired with CBGA ([5]; Jurkat cells) | also measured
CCCCCc1cc(O)c2c(c1)OC(C)(C)[C@@H]1CCC(C(=O)O)=C[C@@H]21 [11-nor-COOH-Δ9-THC, (6aR,10aR)-1-hydroxy-6,6-dimethyl-3-pentyl-6a,7,8,10a-tetrahydro-6H-benzo[c]chromene-9-carboxylic acid] | – | – | – | – | – | – | Inhibitory effect in immune cells compared with non-immune HEK293 cells [1]: selective
CCCCCc1cc(O)c2c(c1)OC(C)(CCC=C(C)C)C=C2 (stereo not shown) [CBC, 2-methyl-2-(4-methylpent-3-en-1-yl)-7-pentyl-2H-chromen-5-ol] | – | – | – | – | – | – | IC50 SOCE HEK-293 ([1]; Table 5, individual cannabinoids, HEK-293): 31.6 µg/mL (≈ 100 µM); IC50 SOCE U937 ([2]; Table 5, individual cannabinoids, U937): 40.8 µg/mL (≈ 130 µM); IC50 SOCE Luva ([3]; Table 5, individual cannabinoids, Luva): >50 µg/mL; IC50 SOCE RBL-2H3 ([4]; Table 5, individual cannabinoids, RBL-2H3): 26.8 µg/mL (≈ 85.2 µM); IC50 SOCE Jurkat ([5]; Table 5, individual cannabinoids, Jurkat): 13.06 µg/mL (≈ 41.5 µM)
CCCCCc1cc2c(c(O)c1C(=O)O)C=C[C@@](C)(CCC=C(C)C)O2 [CBCA, (R)-5-hydroxy-2-methyl-2-(4-methylpent-3-en-1-yl)-7-pentyl-2H-chromene-6-carboxylic acid] | > 50 | > 50 | 29.1 (≈ 81.3 µM) | > 50 | 1.13 (≈ 3.15 µM) | Simple additive behavior | –
C=C(C)[C@@H]1CCC(C)=C[C@H]1c1c(O)cc(CCCCC)c(C(=O)O)c1O [CBDA, (1′R,2′R)-2,6-dihydroxy-5′-methyl-4-pentyl-2′-(prop-1-en-2-yl)-1′,2′,3′,4′-tetrahydro-[1,1′-biphenyl]-3-carboxylic acid] | 16.1 (≈ 45 µM) | 5.83 (≈ 16.3 µM) | 5.17 (≈ 14.4 µM) | 2.4 (≈ 6.69 µM) | 4.07 (≈ 11.4 µM) | inhibit less than predicted | Inhibitory effect in immune cells compared with non-immune HEK293 cells [1]: selective; Combinatory effect on SOCE inhibition when paired with CBGA [6]: sub-additive combinatory effects
C=C(C)[C@@H]1CCC(C)=C[C@H]1c1c(O)cc(CCC)cc1O [CBDV, (1′R,2′R)-5′-methyl-2′-(prop-1-en-2-yl)-4-propyl-1′,2′,3′,4′-tetrahydro-[1,1′-biphenyl]-2,6-diol] | 30.2 (≈ 105 µM) | 17.5 (≈ 61.1 µM) | > 50 | 0.17 (≈ 0.594 µM) | 6 (≈ 20.9 µM) | inhibit less than predicted | Inhibitory effect in immune cells compared with non-immune HEK293 cells [1]: selective
C=C(C)[C@@H]1CCC(C)=C[C@H]1c1c(O)cc(CCC)c(C(=O)O)c1O [CBDVA, (1′R,2′R)-2,6-dihydroxy-5′-methyl-2′-(prop-1-en-2-yl)-4-propyl-1′,2′,3′,4′-tetrahydro-[1,1′-biphenyl]-3-carboxylic acid] | – | – | 8.45 (≈ 25.6 µM) | – | – | inhibit less than predicted | IC50 [1, 11]: 23.5 µg/mL (≈ 71.2 µM); IC50 [2, 12]: 10.6 µg/mL (≈ 32.2 µM); IC50 [4, 13]: 11.3 µg/mL (≈ 34.3 µM); IC50 [5, 14]: 11.3 µg/mL (≈ 34.2 µM)
CCCc1cc(O)c(C/C=C(\C)CCC=C(C)C)c(O)c1C(=O)O [CBGVA, (E)-3-(3,7-dimethylocta-2,6-dien-1-yl)-2,4-dihydroxy-6-propylbenzoic acid] | 4.15 (≈ 12.5 µM) | 2.86 (≈ 8.6 µM) | 2.6 (≈ 7.82 µM) | 2.53 (≈ 7.61 µM) | 1.15 (≈ 3.46 µM) | Simple additive behavior | Combinatory effect on SOCE inhibition when paired with CBGA [6]: sub-additive combinatory effects
CCCCCc1cc(O)c2c(c1)O[C@]1(C)CCC3[C@@H]1[C@@H]2C3(C)C (stereo partly drawn) [CBL, (1aS,1a1R,3aR,8bR)-1,1,3a-trimethyl-6-pentyl-1a,1a1,2,3,3a,8b-hexahydro-1H-4-oxabenzo[f]cyclobuta[cd] inden-8-ol] | > 50 | > 50 | > 50 | > 50 | > 50 | Simple additive behavior | –
CCCCCc1cc2c(c(O)c1C(=O)O)[C@@H]1[C@H]3C(CC[C@@]3(C)O2)C1(C)C (stereo partly drawn) [CBLA, (1aS,1a1R,3aR,8bR)-8-hydroxy-1,1,3a-trimethyl-6-pentyl-1a,1a1,2,3,3a,8b-hexahydro-1H-4-oxabenzo[f]cyclobuta[cd] indene-7-carboxylic acid] | – | – | 12.4 (≈ 34.5 µM) | – | – | inhibit less than predicted | IC50 [1, 11]: > 50 µg/mL; IC50 [2, 12]: 28.3 µg/mL (≈ 79 µM); IC50 [4, 13]: 20.9 µg/mL (≈ 58.2 µM); IC50 [5, 14]: 9.29 µg/mL (≈ 25.9 µM)
CCCCCc1cc2c(c(O)c1C(=O)O)-c1cc(C)ccc1C(C)(C)O2 [CBNA, 1-hydroxy-6,6,9-trimethyl-3-pentyl-6H-benzo[c]chromene-2-carboxylic acid] | 22.5 (≈ 63.5 µM) | 19.2 (≈ 54.1 µM) | 7.25 (≈ 20.5 µM) | > 50 | 0.99 (≈ 2.79 µM) | Simple additive behavior | Combinatory effect on SOCE inhibition when paired with CBGA [6]: sub-additive combinatory effects
C=C(C)c1ccc(C)cc1-c1c(O)cc(CCCCC)cc1O [CBND, 5′-methyl-4-pentyl-2′-(prop-1-en-2-yl)-[1,1′-biphenyl]-2,6-diol] | 32.8 (≈ 106 µM) | 24 (≈ 77.3 µM) | > 50 | 19 (≈ 61.2 µM) | 6.7 (≈ 21.6 µM) | Simple additive behavior | –
CCCCCc1cc(OC)c2c(c1)OC(C)(C)c1ccc(C)cc1-2 [CBNM, 1-methoxy-6,6,9-trimethyl-3-pentyl-6H-benzo[c]chromene] | > 50 | > 50 | > 50 | > 50 | > 50 | – | –
CCCCCc1cc2c(c(O)c1C(=O)O)[C@@H]1C=C(C)CC[C@H]1C(C)(C)O2 [THCA, (6aR,10aR)-1-hydroxy-6,6,9-trimethyl-3-pentyl-6a,7,8,10a-tetrahydro-6H-benzo[c]chromene-2-carboxylic acid] | 17.5 (≈ 48.9 µM) | 8.1 (≈ 22.6 µM) | 10.4 (≈ 29 µM) | 0.57 (≈ 1.59 µM) | 2.23 (≈ 6.22 µM) | Simple additive behavior | Combinatory effect on SOCE inhibition when paired with CBGA [6]: sub-additive combinatory effects
CCCc1cc(O)c2c(c1)OC(C)(C)[C@@H]1CCC(C)=C[C@@H]21 [THCV, (6aR,10aR)-6,6,9-trimethyl-3-propyl-6a,7,8,10a-tetrahydro-6H-benzo[c]chromen-1-ol] | > 50 | > 50 | > 50 | > 50 | 10.7 (≈ 37.5 µM) | stronger than predicted inhibitions | Inhibitory effect in immune cells compared with non-immune HEK293 cells [1]: selective
CCCCCc1cc(O)c2c(c1)OC(C)(C)[C@@H]1CCC(C)=C[C@@H]21 [Δ9-THC, (6aR,10aR)-6,6,9-trimethyl-3-pentyl-6a,7,8,10a-tetrahydro-6H-benzo[c]chromen-1-ol] | > 50 | > 50 | > 50 | 0.97 (≈ 3.08 µM) | > 50 | – | Effect on SOCE (Ca2+ signals), pure compounds ([5]; Jurkat cells, compounds at 10 μM, 1 μM thapsigargin): low to no effects; IC50 on SOCE relative to acidic variations ([5]; Jurkat cells, dose response 0 to 30 μM): higher IC50 than their acidic variations
